Experimental findings from patent US9884047B1, “Method of treating lung cancer” (Macau University of Science and Technology, priority 2017, dated 2018) are described below.

Holding throughout (type): cell-based
The test system of data set [1] is H358 NSCLC cells. Description: Apoptosis analysis (Annexin V/PI flow cytometry). To be noted: H358 cells, 0, 5, 10, 20 and 40 μM for 24 h. Here is the method: (§1) H2122, A549 and H358 NSCLC cells were plated in a 6-well plate with 2.0×10^5 cells/well and cultured overnight for attachment. After treatment with compound K017-0105 at 0, 5, 10, 20, 40 μM for 24 h, all cells were harvested by trypsinization and centrifuged at room temperature at 1000 rotations per minute (RPM) for 5 minutes. Cells were re-suspended in 100 μL 1× binding buffer and stained with Annexin V and propidium iodide (PI) staining solution for 15 minutes at room temperature in the dark. Apoptotic cells were quantitatively counted by a BD FACSAria III Flow Cytometer.
(§2) The ability of compound K017-0105 in inducing apoptosis in H2122, H358 and A549 NSCLC cells was examined. H2122, H358 and A549 NSCLC cells were treated with compound K017-0105 at different concentrations (0, 5, 10, 20 and 40 μM) for 24 h. These cells were stained with Annexin V-FITC/PI, and […] was detected by flow cytometry.
(Flow cytometry measures light scatter and fluorescence of single cells or particles in a stream.)

In data set [2] the test system is A549 NSCLC cells. Description: Apoptosis analysis (Annexin V/PI flow cytometry). To be noted: A549 cells, 0, 5, 10, 20 and 40 μM for 24 h. The method, then:
as §1, §2

In data set [3] the test system is H2122 NSCLC cells. Kind of data set: Apoptosis analysis (Annexin V/PI flow cytometry). Particulars: H2122 cells, 0, 5, 10, 20 and 40 μM for 24 h. The method, then:
as §1, §2

Another data set has as its system p-CRAF, p-Akt and p-ERK. Kind of data set: Western blot analysis of KRAS downstream signaling. To be noted: compared with untreated control cells. Here is the method:
H2122, H358 and A549 NSCLC cells were rinsed with phosphate-buffered saline (PBS) and lysed in radioimmunoprecipitation assay (RIPA) lysis buffer (Beyotime, China) supplemented with a protease and phosphatase inhibitor cocktail (Thermo Scientific 78440, USA) once for 30 minutes. Cell lysates were centrifuged at 12,000 g for 10 minutes at 4° C. The supernatant was collected, and the protein concentration was calculated with a Bio-Rad detergent compatible (DC™) protein assay kit (Bio-Rad, Philadelphia, Pa., USA). 30 μg protein lysates were loaded and separated by 10% sodium dodecyl sulfate (SDS)-polyacrylamide gel electrophoresis and transferred to a nitrocellulose (NC) membrane. The membranes were incubated with the primary antibody (1:2000) and then with a fluorescence-conjugated secondary antibody (1:10000). Glyceraldehyde 3-phosphate dehydrogenase (GAPDH) was used as the loading control for normalization. The signal of the membranes was scanned with a LI-COR Odyssey Scanner (Belfast, Me., USA).

Data set [4] relates to H358 NSCLC cells. Kind of data set: MTT cytotoxicity assay. Here is the method: (§3) H2122, A549 and H358 non-small cell lung cancer (NSCLC) cells were purchased from ATCC and cultivated with Roswell Park Memorial Institute (RPMI) 1640 medium supplemented with 10% fetal bovine serum (Gibco, Big Cabin, Oklahoma, ME, USA), 100 units/mL penicillin and 100 μg/mL streptomycin (Gibco, Big Cabin, Oklahoma, ME, USA). All the cells were cultivated at 37° C. in a humidified atmosphere of 5% CO2.
(§4) Cells were seeded in a 96-well microplate with 3000, 4000 or 5000 cells/well confluence and cultured overnight for cell adhesion. Different concentrations of compound K017-0105 were added to the microplates, and the microplates were incubated for 24, 48 or 72 hours (h). Each concentration of compound K017-0105 was repeated in triplicate. 10 μL 3-(4,5-Dimethylthiazol-2-yl)-2,5-Diphenyltetrazolium Bromide (MTT) (5 mg/mL) solution was added to every well. After incubating for 4 h, 100 μL dimethyl sulfoxide (DMSO) was added to each well. After shaking for 15 minutes, the absorbance of the microplate was measured at 570 nm (absorbance) and 650 nm (reference) by a microplate reader (Tecan, Morrisville, N.C., USA).
In general terms: Tetrazolium dyes change colour on reduction, which living cells bring about.

Data set [5] deals with A549 NSCLC cells. Kind of data set: MTT cytotoxicity assay. Here is the method: as §3, §4
Data set [6] has as its system H2122 NSCLC cells. Kind of data set: MTT cytotoxicity assay. The method, then: as §3, §4
The subject of the next data set is GTP-bound KRAS. Description: RAS-binding domain pull down assay. To be noted: 400 of compound, 24 hour treatment. Here is the method: KRAS activation was determined using the rat sarcoma (RAS) activation assay kit (Millipore, 17-218) in accordance with the manufacturer's guidelines. Cell lysates were prepared using Mg2^+ Lysis/wash buffer (MLB). Samples were incubated with 10 μg RAS assay reagent and incubated for 45 minutes at 4° C. Agarose beads were pelleted by centrifugation and washed 3 times with MLB. Agarose beads were re-suspended in loading buffer. Samples were subjected to western blotting, as previously described, and the blots were probed using anti-K-Ras antibody (sc-30, Santa Cruz Biotechnology (SANTA)).

Data set [7] concerns normal CCD-19Lu lung cells. Kind of data set: MTT cytotoxicity assay. Particulars: 72 h. Here is the method: as §4

The IC50 is the concentration at which inhibition is half-maximal. Read a high IC50 as weaker potency. For the compound `O=C1Nc2ccccc2/C1=N\Nc1ccc(F)c(Cl)c1` [compound K017-0105], the apoptosis result with H358 NSCLC cells [1], with A549 NSCLC cells [2] and with H2122 NSCLC cells [3] was “significantly induced apoptosis” in each case. Further, the “levels of p-CRAF, p-Akt and p-ERK” value with p-CRAF, p-Akt and p-ERK (A549 NSCLC cells) was “decreased”; with p-CRAF, p-Akt and p-ERK (H358 NSCLC cells), “decreased”; in the data set on p-CRAF, p-Akt and p-ERK (H2122 NSCLC cells), “decreased”. The half-inhibitory concentration (IC50) in the data set on H358 NSCLC cells [4] (Homo sapiens, NCI-H358, 72 h treatment, mean±SEM) was determined as 8.18 ± 1.29 µM; in the data set with A549 NSCLC cells [5] (Homo sapiens, 72 h treatment, mean±SEM), 8.28 ± 2.64 µM; with H2122 NSCLC cells [6] (Homo sapiens, NCI-H2122, 72 h treatment, mean±SEM) it was 7.19 ± 1.6 µM. Also, the cytotoxicity result with H358 NSCLC cells [4] (MTT, 72 h) is “significant cytotoxicity”; in the data set on A549 NSCLC cells [5] (MTT, 72 h), “significant cytotoxicity”; in the data set with H2122 NSCLC cells [6] (MTT, 72 h) it was “significant cytotoxicity”; in [7], “no cytotoxicity”. Further, the “level of GTP-bound KRAS” value in the data set with GTP-bound KRAS (A549 NSCLC cells), with GTP-bound KRAS (H358 NSCLC cells) and with GTP-bound KRAS (H2122 NSCLC cells) was “inhibited” each time.
